Entries after “also recorded” stand apart in the source; their conditions may differ. Like-named read-outs stand apart in the source and are kept apart here.
Key:
[1] = system: CH3/HeJ mice; test: Mouse Tail Suspension Assay (Acute), TST; format: in vivo; settings: p.o.; for ED50: Mus musculus, po, 7 min, 7-min session
Protocol: In the tail suspension test (TST) for evaluating compounds for anti-depressant activity, mice are suspended by their tails to a metal or plastic rod using clip or scotch tape. The test is usually quite short, 5-7 min, and the amount of time the mice spend immobile is recorded either manually or with an automated device. Agents which have antidepressant activity, decrease the duration of immobility of mice in this test.
The basic apparatus for the tail suspension assay consisted of a yellow plastic chamber (91×45×10 cm) divided for four arenas 25, 20, 20 and 25 cm wide separated by yellow plastic walls 0.75 cm thick. Mice were suspended by their tails using a rubber clip (7 cm long) attached to the plastic rod that was placed on the top of a testing chamber half way through its deep dimension. Each experimental session was videotaped and analyzed for four animals in the real time by computer software (“Depression Scan” Clever Sys Inc.). The computer justification of immobility was calibrated with the use of animals dosed with lorazepam while justification of movement was calibrated with the high dose of desipramine treated animals. Control, vehicle treated animals and animals treated with Compound #8 were analyzed under the calibrated settings. The settings were adjusted separately for dark (CH3/HeJ and C57Bl/6J strains) and white mice (Balb/cJ and A/J strains). A yellow background was used for dark mice and a blue background was used to record movements of white mice.
The ability of a test compound to decrease the duration of immobility, or increase mobility was measured using the TST procedure described above. Acute treatment with clinically effective antidepressants and/or novel compounds that have potential antidepressant properties decrease the duration of immobility and at the same time increases mobility in the TST.
Data were analyzed using GraphPad Prism software (GraphPad Software, Inc. San Diego, Calif.). For the comparison of the effect of different doses for various drugs on immobility in the TST one-way analyses of variance (ANOVA) were used followed by Dunnett's multiple comparison test. […] The ED50 and Emax values were compared using two-way ANOVA and Bonferroni post-hoc test.
Positive controls included duloxetine (DLX), venlafaxine (VLX)and desipramine (DMI) which were dissolved in 0.5% methylcellulose and lorazepam (LOR) which was suspended in 0.5% of methylcellulose in water by sonication. All drugs and vehicles were administered orally (p.o.) by gavage in a volume of 10 mL/kg.
The mice were ordered 5 weeks old and at the beginning of experiment their weight was 20±5 g. Animals were housed in groups of four in plastic cages at an ambient temperature of 21° C. to 23° C. with an automated 12/12 hours light/dark cycle and access to water and a commercial rodent food ad libitum.
Each experiment consisted of seven treatment groups with four animals per group. A total of 28 animals per experiment were used. Every two consecutive experiments (1 & 2, 3 & 4, 5 & 6 and 7 & 8) were exact replicas of each other. […] One treatment group of four animals in each experiment was a vehicle treated group. In addition to the vehicle treated group, the effects of DMI at 6 mg/kg, 12 mg/kg, 30 mg/kg, 60 mg/kg and 120 mg/kg and LOR at 5 mg/kg were tested in experiments 1 and 2. […] In experiments 5 and 6 the effects of DLX at 6 mg/kg, 12 mg/kg, 30 mg/kg, 60 mg/kg, 120 mg/kg and LOR at 5 mg/kg were tested. […]

[2] = system: Male Wistar rats; test: Chronic Mild Stress Model (Chronic), sucrose consumption; format: in vivo
Source text: In the chronic mild stress (CMS) model rats subjected to a variety of mild stressors for a prolonged period of time show, among other behavioural, biochemical and physiological impairments, a substantial decrease in their responsiveness to rewarding stimuli. This deficit is usually monitored by a decrease in the consumption of the 1% sucrose solution, but can also be seen in other tests, such as place preference conditioning or intracranial self-stimulation. Since the subsensitivity to reward appears to reflect anhedonia (inability to experience pleasure), which is a core symptom of major depressive disorders, the CMS procedure may serve as a suitable research tool in studies into the mechanisms of antidepressant action.
Male Wistar rats were brought into the laboratory two months before the start of the experiment. Except as described below, the animals were singly housed with food and water freely available, and were maintained on a 12-h light/dark and in a constant temperature (22±2° C.) and humidity (50±5%) conditions.
The animals were first trained to consume a 1% sucrose solution; training consisted of eight 1 h baseline tests in which sucrose was presented, in the home cage, following 14 h food and water deprivation; the sucrose intake was measured by weighing pre-weighed bottles containing the sucrose solution, at the end of the test. Subsequently, sucrose consumption was monitored, under similar conditions, at weekly intervals throughout the whole experiment.
On the basis of their sucrose intakes in the final baseline test, the animals were divided into two matched groups. One group of animals was subjected to the chronic mild stress procedure for a period of 7 consecutive weeks. Each week of stress regime consisted of: two periods of food or water deprivation, two periods of 45 degree cage tilt, two periods of intermittent illumination (lights on and off every 2 h), two periods of soiled cage (250 ml water in sawdust bedding), one period of paired housing, two periods of low intensity stroboscopic illumination (150 flashes/min), and three periods of no stress. All stressors were 10-14 h of duration and were applied individually and continuously, day and night. Control animals were housed in separate rooms and had no contact with the stressed animals. They were deprived of food and water for the 14 h preceding each sucrose test, but otherwise food and water were freely available in the home cage.
The drugs were administered at approx. 10.00 and the weekly sucrose tests were carried out 24 h following the last drug injections. […]
All results obtained in this study were analyzed by multiple analyses of variance with three between-subjects factors (stress/control, drug treatments and successive sucrose tests). […]

NS(=O)(=O)NC[C@H]1COc2cc(Cl)ccc2O1 [Compound #8, (2S)-(−)-N-(6-Chloro-2,3-dihydro-benzo[1,4]dioxin-2-ylmethyl)-sulfamide]
ED50 ([1]; read-out: Immobility ED50): 5.6 mg/kg
ED50 ([1]; read-out: Mobility ED50): 3.6 ± 2.9 mg/kg
effect on immobility and mobility time in TST ([1]; 7-min testing session): decreased immobility time and increased mobility time; also recorded: antidepressant-like activity
Treatment effect on sucrose intake vs vehicle, control animals ([2]; controls, 12, 30 or 60 mg/kg once daily i.p. for five weeks): did not cause significant Treatment effects
Treatment effect on sucrose intake vs vehicle, stressed animals ([2]; stressed, 12, 30 or 60 mg/kg once daily i.p. for five weeks): did not cause significant Treatment effects

Reference: patent publication US20070155827A1, “USE OF BENZO-FUSED HETEROCYCLE SULFAMIDE DERIVATIVES FOR THE TREATMENT OF DEPRESSION” (priority 2005, published 2007)
